Assay results published in PubChem BioAssay (NCI).
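Compound exposure: 48 hours, 5 concentrations, 96-well plates. GI50: concentration for 50% inhibition of growth. TGI marks complete inhibition of growth.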

Assays:
Assay in all cases: NCI tumour cell line growth inhibition, 48 h
NCI-H23 lung = tested on: NCI-H23 lung
NCI-H460 lung = tested on: NCI-H460 lung
NCI-H522 lung = tested on: NCI-H522 lung
NCI/ADR-RES ovarian = tested on: NCI/ADR-RES ovarian
OVCAR-3 ovarian = tested on: OVCAR-3 ovarian
OVCAR-4 ovarian = tested on: OVCAR-4 ovarian
OVCAR-5 ovarian = tested on: OVCAR-5 ovarian
OVCAR-8 ovarian = tested on: OVCAR-8 ovarian
PC-3 prostate = tested on: PC-3 prostate
RPMI-8226 leukemia = tested on: RPMI-8226 leukemia
RXF 393 renal = tested on: RXF 393 renal
SF-268 CNS = tested on: SF-268 CNS
SF-295 CNS = tested on: SF-295 CNS
SF-539 CNS = tested on: SF-539 CNS
SK-MEL-2 melanoma = tested on: SK-MEL-2 melanoma
SK-MEL-28 melanoma = tested on: SK-MEL-28 melanoma
SK-MEL-5 melanoma = tested on: SK-MEL-5 melanoma
SK-OV-3 ovarian = tested on: SK-OV-3 ovarian
SN12C renal = tested on: SN12C renal
SNB-19 CNS = tested on: SNB-19 CNS
SNB-75 CNS = tested on: SNB-75 CNS
SR leukemia = tested on: SR leukemia
SW-620 colon = tested on: SW-620 colon
T-47D breast = tested on: T-47D breast
TK-10 renal = tested on: TK-10 renal
U251 CNS = tested on: U251 CNS
UACC-257 melanoma = tested on: UACC-257 melanoma
UACC-62 melanoma = tested on: UACC-62 melanoma
UO-31 renal = tested on: UO-31 renal

SMILES: NC(=O)c1sc(-n2cnc3ccc(C(F)(F)F)cc32)cc1OCc1ccccc1Br
- GI50 (NCI-H23 lung): 1.23 µM
- TGI (NCI-H23 lung): > 25 µM
- GI50 (NCI-H460 lung): 0.946 µM
- TGI (NCI-H460 lung): > 15.4 µM
- GI50 (NCI-H522 lung): 0.793 µM
- TGI (NCI-H522 lung): 5.71 µM
- GI50 (NCI/ADR-RES ovarian): 0.764 µM
- TGI (NCI/ADR-RES ovarian): > 25 µM
- GI50 (OVCAR-3 ovarian): 0.762 µM
- TGI (OVCAR-3 ovarian): 2.55 µM
- GI50 (OVCAR-4 ovarian): 3.21 µM
- TGI (OVCAR-4 ovarian): > 25 µM
- GI50 (OVCAR-5 ovarian): 1.46 µM
- TGI (OVCAR-5 ovarian): > 19.2 µM
- GI50 (OVCAR-8 ovarian): 1.78 µM
- TGI (OVCAR-8 ovarian): > 25 µM
- GI50 (PC-3 prostate): 2.31 µM
- TGI (PC-3 prostate): > 25 µM
- GI50 (RPMI-8226 leukemia): 2.7 µM
- TGI (RPMI-8226 leukemia): > 21.2 µM
- GI50 (RXF 393 renal): 0.566 µM
- TGI (RXF 393 renal): 1.94 µM
- GI50 (SF-268 CNS): 1.32 µM
- TGI (SF-268 CNS): > 25 µM
- GI50 (SF-295 CNS): 1.72 µM
- TGI (SF-295 CNS): > 23.4 µM
- GI50 (SF-539 CNS): 1.37 µM
- TGI (SF-539 CNS): > 17 µM
- GI50 (SK-MEL-2 melanoma): 1.31 µM
- TGI (SK-MEL-2 melanoma): 11.3 µM
- GI50 (SK-MEL-28 melanoma): 4.82 µM
- TGI (SK-MEL-28 melanoma): > 25 µM
- GI50 (SK-MEL-5 melanoma): 0.916 µM
- TGI (SK-MEL-5 melanoma): 6.78 µM
- GI50 (SK-OV-3 ovarian): 1.36 µM
- TGI (SK-OV-3 ovarian): 9.41 µM
- GI50 (SN12C renal): 3.81 µM
- TGI (SN12C renal): > 25 µM
- GI50 (SNB-19 CNS): 2.79 µM
- TGI (SNB-19 CNS): > 25 µM
- GI50 (SNB-75 CNS): 6.11 µM
- TGI (SNB-75 CNS): > 25 µM
- GI50 (SR leukemia): 0.907 µM
- TGI (SR leukemia): > 25 µM
- GI50 (SW-620 colon): 0.749 µM
- TGI (SW-620 colon): > 25 µM
- GI50 (T-47D breast): 2.59 µM
- TGI (T-47D breast): > 20.3 µM
- GI50 (TK-10 renal): 7.81 µM
- TGI (TK-10 renal): > 25 µM
- GI50 (U251 CNS): 1.61 µM
- TGI (U251 CNS): > 25 µM
- GI50 (UACC-257 melanoma): 2.74 µM
- TGI (UACC-257 melanoma): > 25 µM
- GI50 (UACC-62 melanoma): 1.38 µM
- TGI (UACC-62 melanoma): 17.9 µM
- GI50 (UO-31 renal): 5.48 µM
- TGI (UO-31 renal): > 25 µM
